Tests used:
CB1 (rCB1) [1] = target: T1, CB1 (rCB1) (Rattus norvegicus, UniProt P20272); experiment: Radioligand competition binding, [3H]-CP-55,940, rat brain membranes; conditions: for pKi [95% CI]: rCB1; for Ki: read-out: Ki [95% CI], rCB1, [3H]-CP-55,940
CB1 (rCB1) [2] = target: T1, CB1 (rCB1); experiment: Single-point radioligand displacement screen; format: binding; conditions: for % 1H-CP-55,940 displacement (mean) from single point screen: 10 µM, 1 µM or 300 nM by cell colour (not visible); for rep1_displacement / rep2_displacement / rep3_displacement: Figure 1c source data; for rep1_displacement: replicate 1; for rep2_displacement: replicate 2; for rep3_displacement: replicate 3; for % radioligand displacement [S.D]: single point at 10 µM, three replicates

T1 sequence (P20272 whole entry): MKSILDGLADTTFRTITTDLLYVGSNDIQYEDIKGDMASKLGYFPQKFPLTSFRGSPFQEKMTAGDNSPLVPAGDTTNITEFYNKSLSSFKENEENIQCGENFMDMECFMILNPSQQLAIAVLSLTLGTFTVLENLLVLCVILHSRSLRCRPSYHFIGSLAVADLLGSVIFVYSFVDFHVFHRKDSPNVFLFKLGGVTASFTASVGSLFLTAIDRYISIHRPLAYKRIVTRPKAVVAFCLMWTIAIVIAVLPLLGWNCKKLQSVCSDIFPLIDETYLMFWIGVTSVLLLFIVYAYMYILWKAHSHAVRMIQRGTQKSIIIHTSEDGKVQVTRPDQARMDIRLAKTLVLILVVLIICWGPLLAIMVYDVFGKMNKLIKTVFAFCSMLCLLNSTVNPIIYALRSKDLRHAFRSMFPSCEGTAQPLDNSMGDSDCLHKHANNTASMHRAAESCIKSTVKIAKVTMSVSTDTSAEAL

Structure (SMILES)	% 1H-CP-55,940 displacement (mean) from single point screen (CB1 (rCB1) [2])	rep1_displacement (CB1 (rCB1) [2])	rep2_displacement (CB1 (rCB1) [2])	rep3_displacement (CB1 (rCB1) [2])	further results
CCCCCCC(C)(C)c1cc(O)c2c(c1)OC(C)(C)C1CCC(=O)CC21 (centres unmarked) [Nabilone, reference compound]	–	–	–	–	pKi [95% CI] (CB1 (rCB1) [1]): 8.6 [8.4 – 8.9]; Ki (CB1 (rCB1) [1]): 2.3 nM
COC(=O)[C@H]1Cc2ccccc2CN1C(=O)c1cc(C)n(-c2cccc(F)c2)n1 [compound 76400]	-1.48%	–	–	–	–
O=C(NCC1CSc2ccccc2O1)c1cn(Cc2ccccc2)nn1 (centres unmarked) [compound 78184]	28.43%	–	–	–	–
Cc1cc(C(=O)NC(c2cccs2)C(C)(C)CO)nn1-c1cccc(Cl)c1 (centres unmarked) [compound 78220]	5.56%	–	–	–	–
O=C(OCC1CSc2ccccc2O1)c1ccc(Oc2cccnc2)cc1 (centres unmarked) [compound 82778]	26.16%	–	–	–	–
CCCC1CN(C(=O)c2cc(Oc3cccc(Br)c3)ccn2)CCO1 (centres unmarked) [compound 83628]	12.80%	14	14.4	10.1	–
CN(C)c1cc(-c2nc(Cc3ccc4c(c3)OCCO4)no2)c2ccccc2n1 [compound 85562]	44.88%	45.9	44.2	44.5	–
O=C(OCC1CSc2ccccc2O1)c1csc(Cc2ccccc2)n1 (centres unmarked) [compound 86798]	2.04%	–	–	–	–
CCOc1cncc(NC(=O)c2cc(C)n(-c3cccc(Cl)c3)n2)n1 [compound 88160]	-5.87%	–	–	–	–
Cc1cc(C(=O)NC(c2ccccc2)c2ccco2)nn1-c1cccc(F)c1 (centres unmarked) [compound 88684]	39.72%	–	–	–	–
COC(=O)CC(NC(=O)c1cc(C)n(-c2ccc(OC)cc2)n1)c1cccs1 (centres unmarked) [compound 90711]	7.24%	–	–	–	–
O=C(OCc1ccc(Cl)cc1-n1cncn1)c1ccnc(OC2CCC2)c1 [compound 91451]	17.98%	15.6	20.4	–	–
COC1CCn2cc(C(=O)NCC(Cc3ccccc3)c3ccccc3)nc2C1 (centres unmarked) [compound 96198]	18.71%	19.2	20.5	16.4	–
Cc1nc(CC2CC2)oc1-c1nc(Cc2ccc3c(c2)OCO3)no1 [compound 97058]	17.45%	–	–	–	–
Cc1ccccc1-n1c(=O)c2ccccc2n2c(SC[C@H]3CCCO3)nnc12 [compound 97662]	18.48%	20.6	19.4	15.5	–
COc1ccc(Cl)c(-c2cc(C(=O)N3CCOC[C@@H]3CC(C)C)on2)c1 [compound 97878]	33.55%	62.5	14.5	23.7	–
O=C1Cc2cc(-c3csc(Cc4ccc(F)cc4)n3)cc3c2N1CCC3 [‘1038]	53.57%	56.9	51.4	52.5	% radioligand displacement [S.D] (CB1 (rCB1) [2]): 53.6% [2.91]
COC(=O)[C@H](c1cccs1)N(C)C(=O)c1cc(C)n(-c2cccc(C(F)(F)F)c2)n1 [‘1066]	–	–	–	–	pKi [95% CI] (CB1 (rCB1) [1]): 5.8 [5.4 – 6.1]; Ki (CB1 (rCB1) [1]): 1720 nM
O=c1ccc(-c2nc(C(F)(F)c3ccc(F)cc3)no2)nn1-c1ccc(F)cc1 [‘2443]	51.06%	53.4	54.3	45.5	% radioligand displacement [S.D] (CB1 (rCB1) [2]): 51.1% [4.87]
CC(=O)C(C)(NC(=O)c1cc(C)n(-c2cccc(C(F)(F)F)c2)n1)c1cccs1 (centres unmarked) [‘4156]	–	–	–	–	pKi [95% CI] (CB1 (rCB1) [1]): 7.9 [7.5 – 8.2]; Ki (CB1 (rCB1) [1]): 13.5 nM
Cc1cc(C(=O)NC(C)(c2ccccc2)c2ccco2)nn1-c1cccc(C(F)(F)F)c1 (centres unmarked) [‘5806]	–	–	–	–	pKi [95% CI] (CB1 (rCB1) [1]): 8.1 [7.7 – 8.5]; fold improvement in CB1R affinity (CB1 (rCB1) [1]; vs parent hit or analog without the change): ~15 fold
COC(=O)[C@@H](c1cccs1)N(C)C(=O)c1cc(C)n(-c2cccc(C(F)(F)F)c2)n1 [‘6000]	–	–	–	–	pKi [95% CI] (CB1 (rCB1) [1]): 5.8 [5.7 – 6.0]; Ki (CB1 (rCB1) [1]): 1460 nM
COC(=O)C(c1ccco1)N(C)C(=O)c1cc(C)n(-c2cccc(C(F)(F)F)c2)n1 (centres unmarked) [‘6425]	–	–	–	–	pKi [95% CI] (CB1 (rCB1) [1]): 6.0 [5.8 – 6.2]; Ki (CB1 (rCB1) [1]): 934 nM
COc1cccc(C2(C)CCN(C(=O)CC34CCCCC3C4(F)F)C2)c1 (centres unmarked) [‘7218]	52.18%	43.4	33	80.2	% radioligand displacement [S.D] (CB1 (rCB1) [2]): 52.2% [24.79]
O=C(CCc1ccccc1)c1cn(C2(c3ccc(F)cc3)CCOCC2)nn1 [‘7337]	56.96%	60.4	55.9	54.6	% radioligand displacement [S.D] (CB1 (rCB1) [2]): 57.0% [3.04]
Cc1cc(C(=O)Nc2ccnn2-c2cccc(Cl)c2)nn1[C@H](C)C1CC1 [‘7902]	57.08%	57	57.3	57	% radioligand displacement [S.D] (CB1 (rCB1) [2]): 57.1% [0.02]
COC(=O)C(NC(=O)c1cc(-c2ccccc2)n(-c2cccc(C(F)(F)F)c2)n1)c1cccs1 (centres unmarked) [‘8079]	–	–	–	–	pKi [95% CI] (CB1 (rCB1) [1]): 7.7 [7.6 – 7.9]; Ki (CB1 (rCB1) [1]): 18.5 nM

From PMC11882969 (Nature Communications, 2025)
